Reference: US10954252B1, “Inhibitors of human immunodeficiency virus replication” (ViiV HEALTHCARE UK (NO.5) LIMITED, priority 2017, dated 2021)

Tests used:
[1] = system: recombinant NL4-3 virus (nef section replaced with Renilla luciferase gene) in MT-2 cells; assay: HIV cell culture assay (antiviral activity, luciferase readout); format: cell-based; conditions: MT-2 cells infected for 4-5 days with recombinant NL4-3 luciferase virus
How it was run: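 NL4-3 reporter virus carrying Renilla luciferase in place of part of nef, produced in 293T cells, was used to infect MT-2 cells for 4-5 days with serial compound dilutions. Luciferase activity was read with a live-cell substrate; EC50 derived from the median effect equation.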

[2] = Compound cytotoxicity, XTT-based colorimetric assay; format: cell-based
How it was run: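 CC50 from uninfected MT2 cells run under the antiviral-assay protocol without virus. Viability read on day 4 by XTT colorimetric assay.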

[3] = human, uninfected MT2 cells, Table 1, day 4, XTT
[4] = human, uninfected MT2 cells, Table 1a, day 4, XTT

Q: What does the source list for `COc1ccc(-n2c([C@H](Cc3cc(F)cc(F)c3)NC(=O)Cn3nc(C(F)F)c4c3C(F)(F)[C@@H]3C[C@H]43)nc3ccccc3c2=O)cc1` [Example 10.31]?
A: EC50 ([1]; Renilla, NL43, Table 1): 18 nM; CC50 at 4 days [2, 3]: > 10000 nM

Q: Which results are given for `O=C(Cn1nc(C(F)F)c2c1C(F)(F)[C@@H]1C[C@H]21)N[C@@H](Cc1cc(F)cc(F)c1)c1nc2ncccc2c(=O)n1-c1ccc2ncsc2c1` [Example 36, N-[(1S)-1-[3-(1,3-benzothiazol-6-yl)-4-oxo-3H,4H-pyrido[2,3-d]pyrimidin-2-yl]-2-(3,5-difluorophenyl)ethyl]-2-[(2S,4R)-9-(difluoromethyl)-5,5-difluoro-7,8-diazatricyclo[4.3.0.0^2,4]nona-1(6),8-dien-7-yl]acetamide]?
A: EC50 ([1]; Renilla, NL43, Table 1a): 10.4 nM; CC50 at 4 days [2, 4]: > 1000 nM

Q: With `COc1ccc2c(=O)n(-c3ccc(Cl)c4c(NS(C)(=O)=O)nn(CC(F)F)c34)c(C(Cc3cc(F)cc(F)c3)NC(=O)Cn3nc(C(F)F)c4c3C(F)(F)[C@@H]3C[C@H]43)nc2n1` (single isomer, unassigned) [Example 54.1] as the compound, how does the EC50 ([1]; Renilla, NL43, Table 1a) read?
A: 43.4 nM

Q: And the CC50 at 4 days [2, 4]?
A: > 1000 nM

Q: Which EC50 ([1]; Renilla, NL43, Table 1) does the source give for `O=C(Cn1nc(C(F)F)c2c1C(F)(F)[C@@H]1C[C@H]21)N[C@@H](Cc1cc(F)cc(F)c1)c1nc2cn[nH]c2cc1-c1ccc(Cl)c(C(=O)O)c1` [Example 10.11, 2-Chloro-5-(5-((S)-1-(2-((3bS,4aR)-3-(difluoromethyl)-5,5-difluoro-3b,4,4a,5-tetrahydro-1H-cyclopropa[3,4]cyclopenta[1,2-c]pyrazol-1-yl)acetamido)-2-(3,5-difluorophenyl)ethyl)-1H-pyrazolo[4,3-b]pyridin-6-yl)benzoic acid] here?
A: 810 nM

Q: And the CC50 at 4 days [2, 3]?
A: > 10000 nM

Q: With `Cn1nc(NS(C)(=O)=O)c2c(Cl)ccc(-n3c([C@H](Cc4cc(F)cc(F)c4)NC(=O)Cn4ccc(C5CC5)n4)nc4c(F)ccc(F)c4c3=O)c21` (single isomer, unassigned) [Example 145] as the compound, how does the EC50 ([1]; Table 1a) read?
A: 30.2 nM

Q: What about the CC50 at 4 days [2, 4] of the same compound?
A: > 1000 nM

Q: With `CS(=O)(=O)NC(=O)c1cc(-c2cc3[nH]ncc3nc2[C@H](Cc2cc(F)cc(F)c2)NC(=O)Cn2nc(C(F)F)c3c2C(F)(F)[C@@H]2C[C@H]32)ccc1F` [Example 10.26, 5-(5-((S)-1-(2-((3bS,4aR)-3-(difluoromethyl)-5,5-difluoro-3b,4,4a,5-tetrahydro-1H-cyclopropa[3,4]cyclopenta[1,2-c]pyrazol-1-yl)acetamido)-2-(3,5-difluorophenyl)ethyl)-1H-pyrazolo[4,3-b]pyridin-6-yl)-2-fluoro-N-(methylsulfonyl)benzamide] as the compound, how does the EC50 ([1]; Renilla, NL43, Table 1) read?
A: 930 nM

Q: And the CC50 at 4 days [2, 3]?
A: > 10000 nM

Q: Which EC50 ([1]; Renilla, NL43, Table 1) does the source give for `CS(=O)(=O)Nc1nn(CC(F)F)c2c(-n3c([C@H](Cc4cc(F)cc(F)c4)NC(=O)Cn4nc(C(F)F)c5c4C(F)(F)C4CC54)nc4ncccc4c3=O)ccc(Cl)c12` (single isomer, unassigned) [Example 14.1] here?
A: 49 nM

Q: And the CC50 at 4 days [2, 3]?
A: > 10000 nM

Q: With `COc1ccc2c(=O)n(-c3ccc(Cl)c4c(NS(C)(=O)=O)nn(C)c34)c([C@H](Cc3cc(F)cc(F)c3)NC(=O)Cn3nc(C(F)F)c4c3C(F)(F)C3CC43)nc2n1` (stereo in doubt) [Example 13.2, N—((S)-1-(3-(4-chloro-1-methyl-3-(methylsulfonamido)-1H-indazol-7-yl)-7-methoxy-4-oxo-3,4-dihydropyrido[2,3-d]pyrimidin-2-yl)-2-(3,5-difluorophenyl)ethyl)-2-((3bS,4aR)-3-(difluoromethyl)-5,5-difluoro-3b,4,4a,5-tetrahydro-1H-cyclopropa[3,4]cyclopenta[1,2-c]pyrazol-1-yl)acetamide] as the compound, how does the EC50 ([1]; Renilla, NL43, Table 1) read?
A: 18 nM

Q: And the CC50 at 4 days [2, 3]?
A: > 10000 nM

Q: With `Cn1nc(NS(C)(=O)=O)c2c(Cl)ccc(-c3cc4cn[nH]c4nc3C(Cc3cc(F)cc(F)c3)NC(=O)Cn3nc(C(F)F)c4c3C(F)(F)[C@@H]3C[C@H]43)c21` (single isomer, unassigned) [Example 6.1] as the compound, how does the EC50 ([1]; Table 1) read?
A: 1020 nM

Q: And the CC50 at 4 days [2, 3]?
A: > 10000 nM

Q: With `Cn1nc(NS(C)(=O)=O)c2c(Cl)ccc(-n3c(C(Cc4cc(F)cc(F)c4)NC(=O)Cn4nc(C(F)F)c5c4C(F)(F)[C@@H]4C[C@H]54)nc4ncc(C#N)cc4c3=O)c21` (mixture of isomers) [Example 37.2, N-(1-(3-(4-chloro-1-methyl-3-(methylsulfonamido)-1H-indazol-7-yl)-6-cyano-4-oxo-3,4-dihydropyrido[2,3-d]pyrimidin-2-yl)-2-(3,5-difluorophenyl)ethyl)-2-((3bS,4aR)-3-(difluoromethyl)-5,5-difluoro-3b,4,4a,5-tetrahydro-1H-cyclopropa[3,4]cyclopenta[1,2-c]pyrazol-1-yl)acetamide] as the compound, how does the EC50 ([1]; Renilla, NL43, Table 1a) read?
A: 0.54 nM

Q: And the CC50 at 4 days [2, 4]?
A: > 10000 nM

Q: What does the source list for `Cn1nc(NS(C)(=O)=O)c2c(Cl)ccc(-n3c([C@H](Cc4cc(F)cc(F)c4)NC(=O)Cn4nc(C(F)F)c5c4C(F)(F)[C@@H]4C[C@H]54)nc4ccc(OC(F)(F)F)cc4c3=O)c21` (single isomer, unassigned) [Example 140]?
A: EC50 ([1]; Renilla, NL43, Table 1a): 0.32 nM; CC50 at 4 days [2, 4]: > 1000 nM

Q: With `Cc1ccn(CC(=O)N[C@@H](Cc2cc(F)cc(F)c2)c2nc3ncccc3c(=O)n2-c2ccc(Cl)c3c(NS(C)(=O)=O)nn(C)c23)n1` (single isomer, unassigned) [Example 47.1] as the compound, how does the EC50 ([1]; Table 1a) read?
A: 227 nM

Q: And the CC50 at 4 days [2, 4]?
A: > 1000 nM

Q: Which EC50 ([1]; Renilla, NL43, Table 1a) does the source give for `CC(C)(C)c1ccc2c(=O)n(-c3ccc(Cl)c4c(NS(C)(=O)=O)nn(CC(F)F)c34)c([C@H](Cc3cc(F)cc(F)c3)NC(=O)Cn3nc(C(F)F)c4c3C(F)(F)[C@@H]3C[C@H]43)nc2c1` [Example 217, N—((S)-1-(7-(tert-Butyl)-3-(4-chloro-1-(2,2-difluoroethyl)-3-(methylsulfonamido)-1H-indazol-7-yl)-4-oxo-3,4-dihydroquinazolin-2-yl)-2-(3,5-difluorophenyl)ethyl)-2-((3bS,4aR)-3-(difluoromethyl)-5,5-difluoro-3b,4,4a,5-tetrahydro-1H-cyclopropa[3,4]cyclopenta[1,2c]pyrazol-1-yl)acetamide] here?
A: 0.25 nM

Q: What about the CC50 at 4 days [2, 4] of the same compound?
A: > 1000 nM

Q: With `O=C(Cn1nc(C(F)F)c2c1C(F)(F)[C@@H]1C[C@H]21)N[C@@H](Cc1cc(F)cc(F)c1)c1nc2ccccc2c(=O)n1-c1ccc(Cl)cc1` [Example 124, N—((S)-1-(3-(4-chlorophenyl)-4-oxo-3,4-dihydroquinazolin-2-yl)-2-(3,5-difluorophenyl)ethyl)-2-((3bS,4aR)-3-(difluoromethyl)-5,5-difluoro-3b,4,4a,5-tetrahydro-1H-cyclopropa[3,4]cyclopenta[1,2-c]pyrazol-1-yl)acetamide] as the compound, how does the EC50 ([1]; Renilla, NL43, Table 1a) read?
A: 208 nM

Q: What about the CC50 at 4 days [2, 4] of the same compound?
A: > 1000 nM

Q: With `Cn1nc(NS(C)(=O)=O)c2c(Cl)ccc(-n3c([C@H](Cc4cc(F)cc(F)c4)NC(=O)Cn4nc(C(F)F)c5c4C(F)(F)[C@@H]4C[C@H]54)nc4cc(C(C)(C)S(C)(=O)=O)ccc4c3=O)c21` (mixture of isomers) [Example 207, N—((S)-1-(3-(4-chloro-1-methyl-3-(methylsulfonamido)-1H-indazol-7-yl)-7-(2-(methylsulfonyl)propan-2-yl)-4-oxo-3,4-dihydroquinazolin-2-yl)-2-(3,5-difluorophenyl)ethyl)-2-((3bS,4aR)-3-(difluoromethyl)-5,5-difluoro-3b,4,4a,5-tetrahydro-1H-cyclopropa[3,4]cyclopenta[1,2-c]pyrazol-1-yl)acetamide] as the compound, how does the EC50 ([1]; Table 1a) read?
A: 4.49 nM

Q: What about the CC50 at 4 days [2, 4] of the same compound?
A: > 1000 nM

Q: With `Cn1nc(NS(C)(=O)=O)c2c(Cl)ccc(-n3c([C@H](Cc4cc(F)cc(F)c4)NC(=O)Cn4ccc(C5CC5)n4)nc4cccc(F)c4c3=O)c21` (single isomer, unassigned) [Example 183] as the compound, how does the EC50 ([1]; Table 1a) read?
A: 21.5 nM

Q: And the CC50 at 4 days [2, 4]?
A: > 1000 nM

Q: Which results are given for `C[Si](C)(C)CCOCn1ncc2nc(C(Cc3cc(F)cc(F)c3)NC(=O)Cc3c[nH]c4ccc(F)cc34)c(-c3ccc4scnc4c3)cc21` (stereo not drawn) [Int 6a, N-(1-(6-(benzo[d]thiazol-5-yl)-1-((2-(trimethylsilyl)ethoxy)methyl)-1H-pyrazolo[4,3-b]pyridin-5-yl)-2-(3,5-difluorophenyl)ethyl)-2-(5-fluoro-1H-indol-3-yl)acetamide]?
A: EC50 ([1]; Renilla, NL43, Table 1): 110 nM; CC50 at 4 days ([2]; human; Table 1; uninfected MT2 cells, day 4, XTT): 29200 nM

Q: With `COc1ccc2c(=O)n(-c3ccc(Cl)c4c(NS(=O)(=O)C5CC5)nn(CC(F)F)c34)c([C@H](Cc3cc(F)cc(F)c3)NC(=O)Cn3nc(C(F)F)c4c3C(F)(F)[C@@H]3C[C@H]43)nc2n1` (mixture of isomers) [Example 56.2, N-[(1S)-1-{3-[4-chloro-3-cyclopropanesulfonamido-1-(2,2-difluoroethyl)-1H-indazol-7-yl]-7-methoxy-4-oxo-3H,4H-pyrido[2,3-d]pyrimidin-2-yl}-2-(3,5-difluorophenyl)ethyl]-2-[(2S,4R)-9-(difluoromethyl)-5,85-difluoro-7,8-diazatricyclo[4.3.0.0^2,4]nona-1(6),8-dien-7-yl]acetamide] as the compound, how does the EC50 ([1]; Renilla, NL43, Table 1a) read?
A: 0.022 nM

Q: What about the CC50 at 4 days [2, 4] of the same compound?
A: > 1000 nM

Q: With `Cn1nc(NS(C)(=O)=O)c2c(Cl)ccc(-n3c([C@H](Cc4cc(F)cc(F)c4)NC(=O)Cn4ccc(C(F)(F)F)n4)nc4cc(C(F)(F)F)ccc4c3=O)c21` (single isomer, unassigned) [Example 141] as the compound, how does the EC50 ([1]; Table 1a) read?
A: 217 nM

Q: And the CC50 at 4 days [2, 4]?
A: > 1000 nM

Q: Which EC50 ([1]; Renilla, NL43, Table 1) does the source give for `O=C(Cn1nc(C(F)F)c2c1C(F)(F)[C@@H]1C[C@H]21)N[C@@H](Cc1cc(F)cc(F)c1)c1nc2cn[nH]c2cc1-c1ccc(F)c(C(=O)O)c1` [Example 10.25, 5-(5-((S)-1-(2-((3bS,4aR)-3-(difluoromethyl)-5,5-difluoro-3b,4,4a,5-tetrahydro-1H-cyclopropa[3,4]cyclopenta[1,2-c]pyrazol-1-yl)acetamido)-2-(3,5-difluorophenyl)ethyl)-1H-pyrazolo[4,3-b]pyridin-6-yl)-2-fluorobenzoic acid] here?
A: 580 nM

Q: And the CC50 at 4 days [2, 3]?
A: > 10000 nM

Q: With `Cn1nc(NS(C)(=O)=O)c2c(Cl)ccc(-n3c([C@H](Cc4cc(F)cc(F)c4)NC(=O)Cn4ccc(C5CC5)n4)nc4cc(F)cc(F)c4c3=O)c21` (single isomer, unassigned) [Example 131] as the compound, how does the EC50 ([1]; Renilla, NL43, Table 1a) read?
A: 111 nM

Q: What about the CC50 at 4 days [2, 4] of the same compound?
A: > 1000 nM
